Activity calls are given as the source filed them.

The results in this text go back to ChEMBL document CHEMBL5518204, “Discovery and Proof of Concept of Potent Dual Polθ/PARP Inhibitors for Efficient Treatment of Homologous Recombination-Deficient Tumors” (J Med Chem, 2024).

Series [1] is described as follows: Antiproliferative activity against human MCF-10A cells assessed as inhibition of cell proliferation incubated for 5 days by MTT assay. The format is toxicity, cell-based. To be noted: human, MCF-10A cells.
The nature of series [2]: Metabolic stability in human liver microsome assessed as half life. To be noted: liver microsomes. The format is ADME. Background: Liver microsomes are vesicles of endoplasmic reticulum, rich in cytochrome P450 enzymes.
Series [3] can be described thus: Tmax in Sprague-Dawley rat at 1 mg/kg, iv by LC-MS/MS analysis. The format is ADME, organism-based. To be noted: in vivo.
Series [4] in a line: MRT (0 to infinity) in Sprague-Dawley rat at 1 mg/kg, iv by LC-MS/MS analysis. To be noted: in vivo. The format is ADME, organism-based.
The nature of series [5]: AUC (0 to t) in Sprague-Dawley rat at 1 mg/kg, iv by LC-MS/MS analysis. It is filed as ADME, organism-based. To be noted: in vivo.
Series [6] can be described thus: Apparent volume of distribution in Sprague-Dawley rat at 1 mg/kg, iv by LC-MS/MS analysis. To be noted: in vivo, read-out: Vz. The format is ADME, organism-based.
The target of series [7] is T1, Poly [ADP-ribose] polymerase tankyrase-1 (Homo sapiens, UniProt O95271).
T1 sequence (O95271 whole entry): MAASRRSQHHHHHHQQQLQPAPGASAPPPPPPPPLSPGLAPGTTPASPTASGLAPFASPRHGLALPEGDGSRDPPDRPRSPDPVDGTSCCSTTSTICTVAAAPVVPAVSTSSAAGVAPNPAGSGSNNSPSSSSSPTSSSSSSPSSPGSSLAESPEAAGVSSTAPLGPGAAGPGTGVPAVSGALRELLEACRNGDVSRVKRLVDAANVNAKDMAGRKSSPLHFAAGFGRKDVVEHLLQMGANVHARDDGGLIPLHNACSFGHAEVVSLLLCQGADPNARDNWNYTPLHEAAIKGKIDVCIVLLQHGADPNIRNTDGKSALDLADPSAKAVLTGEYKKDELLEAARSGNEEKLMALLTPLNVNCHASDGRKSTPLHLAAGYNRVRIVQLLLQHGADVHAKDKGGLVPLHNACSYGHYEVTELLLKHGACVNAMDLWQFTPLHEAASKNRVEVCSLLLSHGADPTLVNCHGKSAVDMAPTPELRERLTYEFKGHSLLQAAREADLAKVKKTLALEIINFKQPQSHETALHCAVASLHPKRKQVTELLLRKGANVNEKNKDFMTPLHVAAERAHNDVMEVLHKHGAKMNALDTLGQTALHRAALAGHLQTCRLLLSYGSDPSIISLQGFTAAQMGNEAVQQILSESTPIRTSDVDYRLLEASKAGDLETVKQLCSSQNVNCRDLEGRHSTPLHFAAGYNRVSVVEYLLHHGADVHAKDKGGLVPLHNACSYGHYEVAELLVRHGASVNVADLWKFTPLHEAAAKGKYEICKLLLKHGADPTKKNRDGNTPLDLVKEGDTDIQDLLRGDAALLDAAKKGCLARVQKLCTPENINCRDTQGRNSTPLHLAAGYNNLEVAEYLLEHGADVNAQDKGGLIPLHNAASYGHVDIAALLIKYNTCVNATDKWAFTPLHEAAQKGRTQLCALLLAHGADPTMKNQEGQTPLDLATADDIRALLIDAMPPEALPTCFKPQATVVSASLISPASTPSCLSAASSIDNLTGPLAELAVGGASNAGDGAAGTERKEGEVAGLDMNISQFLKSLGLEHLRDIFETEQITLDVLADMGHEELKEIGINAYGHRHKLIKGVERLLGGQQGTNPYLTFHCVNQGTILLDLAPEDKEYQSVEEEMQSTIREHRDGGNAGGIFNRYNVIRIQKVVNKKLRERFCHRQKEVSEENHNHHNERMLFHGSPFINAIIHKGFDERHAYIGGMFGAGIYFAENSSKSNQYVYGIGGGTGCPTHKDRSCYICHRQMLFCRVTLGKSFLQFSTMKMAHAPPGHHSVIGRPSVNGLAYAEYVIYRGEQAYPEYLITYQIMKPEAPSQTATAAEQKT
The series is described as follows: Inhibition of PARP5a (unknown origin).

In series [8] the target is T2, Protein mono-ADP-ribosyltransferase PARP8 (Homo sapiens, UniProt Q8N3A8).
T2 sequence (Q8N3A8 whole entry): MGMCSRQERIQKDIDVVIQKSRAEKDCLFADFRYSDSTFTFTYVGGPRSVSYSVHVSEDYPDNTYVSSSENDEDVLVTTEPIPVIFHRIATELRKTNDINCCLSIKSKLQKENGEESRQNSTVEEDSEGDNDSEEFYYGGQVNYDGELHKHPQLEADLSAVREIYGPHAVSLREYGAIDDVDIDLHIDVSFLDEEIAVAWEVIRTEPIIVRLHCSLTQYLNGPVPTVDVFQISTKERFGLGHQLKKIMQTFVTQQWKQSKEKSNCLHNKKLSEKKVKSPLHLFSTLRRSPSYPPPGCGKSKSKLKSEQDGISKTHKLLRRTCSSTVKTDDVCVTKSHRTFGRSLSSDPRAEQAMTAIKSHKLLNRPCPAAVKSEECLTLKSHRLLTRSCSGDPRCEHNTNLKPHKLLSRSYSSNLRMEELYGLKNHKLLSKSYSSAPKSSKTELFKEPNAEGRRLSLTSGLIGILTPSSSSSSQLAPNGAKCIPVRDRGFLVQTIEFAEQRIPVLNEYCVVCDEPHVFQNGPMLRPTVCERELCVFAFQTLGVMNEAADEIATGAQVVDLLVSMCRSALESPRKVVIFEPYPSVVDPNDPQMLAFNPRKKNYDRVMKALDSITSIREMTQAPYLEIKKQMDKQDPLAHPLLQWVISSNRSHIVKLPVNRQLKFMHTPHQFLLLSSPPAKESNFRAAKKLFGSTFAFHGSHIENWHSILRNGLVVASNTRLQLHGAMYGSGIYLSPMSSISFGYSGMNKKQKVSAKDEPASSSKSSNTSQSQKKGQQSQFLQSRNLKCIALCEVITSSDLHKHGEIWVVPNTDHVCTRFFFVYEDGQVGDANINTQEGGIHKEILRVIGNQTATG
The series is described as follows: Inhibition of PARP8 (unknown origin).

The subject of series [9] is MDA-MB-436. Kind of series: Inhibition of colony formation in human MDA-MB-436 cells at 2 uM incubated for 9 days by crystal violet staining based analysis. It is filed as functional, cell-based. To be noted: time 9.0 day.
Series [10] relates to MDA-MB-231. The series is described as follows: Induction of DNA damage in human MDA-MB-231 cells assessed as increase in tail intensity at 2 uM incubated for 3 days by florescence microscopic analysis. To be noted: time 3.0 day. It is filed as functional, cell-based.
Series [11] can be described thus: Stability in rat plasma assessed as half life. The format is ADME, cell-free.
Series [12] can be described thus: Stability in mouse plasma assessed as half life. It is filed as ADME, cell-free.
Series [13] can be described thus: Toxicity in BALB/c mouse xenografted with human MDA-MB-231 cells assessed as liver damage at 20 to 40 mg/kg, ip administered for 21 days by H and E staining based analysis. The format is organism-based. To be noted: in vivo, 504 h, dose 20-40 mg/kg, time 21 day.
A short description of series [14]: Toxicity in BALB/c mouse xenografted with human MDA-MB-231 cells assessed as spleen damage at 20 to 40 mg/kg, ip administered for 21 days by H and E staining based analysis. It is filed as organism-based. To be noted: in vivo, 504 h, dose 20-40 mg/kg, time 21 day. (In xenograft studies the graft and the host belong to different species.)
The nature of series [15]: Toxicity in BALB/c mouse xenografted with human MDA-MB-231 cells assessed as lung damage at 20 to 40 mg/kg, ip administered for 21 days by H and E staining based analysis. It is filed as organism-based. To be noted: in vivo, 504 h, dose 20-40 mg/kg, time 21 day.

As a reminder, the IC50 is the concentration that gives 50% inhibition. A word on the half-life: it is the time needed for the level to fall by half in the phase considered. A word on the Tmax: it is the time from dosing to the highest level. The MRT inf is a mean duration of stay, worked out from the concentration-time curve. A word on the AUC(0-t): it is the area under the concentration-time curve up to a stated or last time point. A lower AUC(0-t) goes with less exposure. Regarding `COc1ccc(Cl)cc1-c1cc(C)ncc1C(=O)Nc1nnc(OCC2CCN(C(=O)c3cc(Cc4n[nH]c(=O)c5ccccc45)ccc3F)CC2)s1`, the IC50 at 5 days in series [1] was > 80000 nM. For the same molecule, the half-life was 2.35 min in series [2], 38.5 h in series [11] and 38.5 h in [12]. For the same molecule, in series [3], the Tmax is 4.8 min. The molecule also returned an MRT inf in [4] of 36 min. In series [5], this molecule displayed an exposure AUC(0-t) of 724 ng·h/mL. Moreover, the Vd in series [6] is 3.97 L/kg. For the same molecule, the IC50 in [7] is 206 nM; in series [8], 2930 nM. Also, the inhibition entry in series [9] was “Active”. Besides, the outcome in series [10] was Active. Also, the Activity result in series [13], in series [14] and in series [15] was “Non-Toxic” each time.
